Experimental data published in ChEMBL document CHEMBL1201862, “PubChem BioAssay data set” (2004).
Calls of active or inactive are those of the source.

Columns and labels:
[1] = target: T1, Mannose-6-phosphate isomerase (Homo sapiens, UniProt P34949); assay: phosphomannose isomerase inhibition – biochemical, fluorescence intensity, confirmation (AID 1535)
T1 sequence (P34949 whole entry): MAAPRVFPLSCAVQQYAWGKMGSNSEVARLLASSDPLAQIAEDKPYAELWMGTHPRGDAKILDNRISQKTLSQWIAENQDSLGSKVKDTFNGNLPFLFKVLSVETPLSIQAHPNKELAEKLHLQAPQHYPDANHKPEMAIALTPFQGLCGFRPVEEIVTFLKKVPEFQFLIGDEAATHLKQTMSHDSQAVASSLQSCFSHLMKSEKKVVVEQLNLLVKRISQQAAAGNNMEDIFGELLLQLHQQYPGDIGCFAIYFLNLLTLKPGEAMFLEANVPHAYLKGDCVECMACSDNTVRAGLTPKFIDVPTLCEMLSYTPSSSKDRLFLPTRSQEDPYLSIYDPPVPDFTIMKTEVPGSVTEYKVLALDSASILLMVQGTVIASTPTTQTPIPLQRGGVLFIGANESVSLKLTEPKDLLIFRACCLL

[2] = target: Phosphomannomutase 2 (Homo sapiens, UniProt O15305); assay: Counter screen SAR assay for PMM2 inhibitors via a fluorescence intensity assay. [Related pubchem assays (depositor defined):AID1545, AID1574]
Sequence of Phosphomannomutase 2 (O15305 whole entry): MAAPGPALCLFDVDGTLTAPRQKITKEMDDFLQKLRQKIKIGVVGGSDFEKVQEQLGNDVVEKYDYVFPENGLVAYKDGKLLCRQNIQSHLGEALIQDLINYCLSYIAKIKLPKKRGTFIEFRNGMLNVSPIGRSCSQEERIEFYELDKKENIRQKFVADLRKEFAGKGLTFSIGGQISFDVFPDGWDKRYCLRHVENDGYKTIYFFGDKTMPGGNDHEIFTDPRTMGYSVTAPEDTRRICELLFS

[3] = target: Phosphoethanolamine/phosphocholine phosphatase (Homo sapiens, UniProt Q8TCT1); assay: SAR assay for compounds that inhibit PHOSPHO1. [Related pubchem assays (depositor defined):AID1545, AID1565, AID1574]
Sequence of Phosphoethanolamine/phosphocholine phosphatase (Q8TCT1 whole entry): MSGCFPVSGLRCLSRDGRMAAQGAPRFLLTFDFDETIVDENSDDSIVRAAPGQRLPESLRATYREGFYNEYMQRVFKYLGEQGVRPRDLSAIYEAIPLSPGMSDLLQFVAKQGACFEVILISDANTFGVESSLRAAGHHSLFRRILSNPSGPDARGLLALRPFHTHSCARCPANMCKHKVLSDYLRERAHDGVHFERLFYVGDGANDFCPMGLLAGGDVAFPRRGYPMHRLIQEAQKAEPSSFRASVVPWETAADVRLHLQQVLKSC

[4] = target: T2, Dual specificity protein phosphatase 3 (Homo sapiens, UniProt P51452); assay: VHR1 phosphatase inhibitors, primary screen, biochemical, absorbance, uHTS (AID 1654)
T2 sequence (P51452 whole entry): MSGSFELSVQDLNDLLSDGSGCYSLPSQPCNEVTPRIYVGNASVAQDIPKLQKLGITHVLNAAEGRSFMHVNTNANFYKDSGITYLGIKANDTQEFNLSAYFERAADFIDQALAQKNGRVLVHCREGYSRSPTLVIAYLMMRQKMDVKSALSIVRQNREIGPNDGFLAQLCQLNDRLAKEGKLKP

[5] = target: Photoreceptor-specific nuclear receptor (Homo sapiens, UniProt Q9Y5X4); format: functional;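 further: potency for compounds that break the NR2E3 corepressor complex and count as activators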
Sequence of Photoreceptor-specific nuclear receptor (Q9Y5X4 whole entry): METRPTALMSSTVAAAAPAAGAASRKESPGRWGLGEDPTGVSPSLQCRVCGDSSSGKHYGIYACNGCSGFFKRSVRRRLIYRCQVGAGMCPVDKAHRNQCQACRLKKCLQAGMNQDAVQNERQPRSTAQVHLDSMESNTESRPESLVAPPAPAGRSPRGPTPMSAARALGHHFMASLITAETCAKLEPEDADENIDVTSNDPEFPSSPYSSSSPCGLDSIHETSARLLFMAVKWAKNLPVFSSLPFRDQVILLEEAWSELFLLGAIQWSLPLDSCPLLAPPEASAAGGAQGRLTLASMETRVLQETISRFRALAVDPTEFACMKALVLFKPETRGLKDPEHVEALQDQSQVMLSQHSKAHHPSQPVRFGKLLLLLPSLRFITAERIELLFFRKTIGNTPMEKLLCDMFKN

[6] = target: T3, Tyrosine-protein phosphatase non-receptor type 7 (Homo sapiens, UniProt P35236); format: functional
T3 sequence (P35236 whole entry): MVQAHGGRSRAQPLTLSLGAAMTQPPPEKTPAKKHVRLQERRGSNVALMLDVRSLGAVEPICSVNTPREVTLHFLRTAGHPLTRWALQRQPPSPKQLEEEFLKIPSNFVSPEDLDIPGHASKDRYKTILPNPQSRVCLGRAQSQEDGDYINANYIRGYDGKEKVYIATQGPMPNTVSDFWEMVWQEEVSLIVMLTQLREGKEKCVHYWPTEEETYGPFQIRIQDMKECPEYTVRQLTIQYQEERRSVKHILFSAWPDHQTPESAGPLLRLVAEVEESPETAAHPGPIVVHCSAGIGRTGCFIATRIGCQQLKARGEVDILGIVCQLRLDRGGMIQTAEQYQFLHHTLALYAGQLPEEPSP

[7] = HPDE-C7 pancreatic duct cell viability loss – fluorescence, HTS (AID 430); format: functional, cell-based; conditions: Homo sapiens
[8] = Trypanosoma cruzi growth suppression in host cells – NIH3T3 host cells, beta-gal luminescence, confirmation (AID 2044); format: functional, cell-based;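 further: intracellular parasites grown in NIH/3T3 mouse fibroblasts as host cells; luminescent beta-galactosidase reporter signal from transgenic T. cruzi replicating inside host cells; inhibitors lower the luminescence signal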
[9] = microbe, parasite or virus in culture; format: functional; conditions: Mycobacterium tuberculosis
[10] = viability loss of HPDE-C7K cells – cell-based, fluorescence, HTS, primary screen (AID 431); format: functional; conditions: Homo sapiens
[11] = target: T2, Dual specificity protein phosphatase 3; assay: VHR1 phosphatase inhibitors, biochemical (AID 1878)
[12] = NIH3T3 cell viability loss – ATP luminescence, mouse fibroblasts, counter-screen, dose response (AID 2010); format: functional, cell-based;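 further: cells exposed to compound for about 90 hours before reading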
[13] = target: Peroxisome proliferator-activated receptor gamma/Nuclear receptor corepressor 2 (Homo sapiens, UniProt P37231+Q9Y618); format: functional
[14] = target: T4, Dual specificity protein phosphatase 6 (Rattus norvegicus, UniProt Q64346); assay: inhibition of rat DUSP6 enzyme activity – biochemical, in vitro, primary screen (AID 425)
T4 sequence (Q64346 whole entry): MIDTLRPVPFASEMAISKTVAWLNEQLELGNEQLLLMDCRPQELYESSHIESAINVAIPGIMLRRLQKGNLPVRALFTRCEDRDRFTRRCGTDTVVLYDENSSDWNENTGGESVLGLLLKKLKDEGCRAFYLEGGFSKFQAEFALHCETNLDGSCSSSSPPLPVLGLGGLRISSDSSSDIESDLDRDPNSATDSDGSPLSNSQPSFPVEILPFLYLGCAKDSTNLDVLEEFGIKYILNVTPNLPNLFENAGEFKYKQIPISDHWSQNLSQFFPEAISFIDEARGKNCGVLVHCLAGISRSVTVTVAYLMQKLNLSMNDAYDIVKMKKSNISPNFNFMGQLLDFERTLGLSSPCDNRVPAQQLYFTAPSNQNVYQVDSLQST

[15] = HEK-293T viability loss after treatment – luminescence, T-cell screen hits, cytotoxicity control for TCR NF-kB inhibitor project, dose response (AID 489026); format: functional, cell-based;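 further: cells exposed to compound about 14 hours before the viability readout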
[16] = Intein inhibitors as potential Tuberculosis drugs, a cytotoxicity screen. [Related pubchem assays (depositor defined):AID2221, AID2223, AID434968, AID435010, AID449749, AID449750, AID489010]; format: functional
[17] = target: Lysine-specific demethylase 4A (Homo sapiens, UniProt O75164); assay: inhibition of JMJD2A H3K9me3 demethylation – biochemical, DELFIA europium, cherry-picked samples, selectivity assay for GASC-1 inhibitor project, dose response (AID 488840)
Sequence of Lysine-specific demethylase 4A (O75164 whole entry): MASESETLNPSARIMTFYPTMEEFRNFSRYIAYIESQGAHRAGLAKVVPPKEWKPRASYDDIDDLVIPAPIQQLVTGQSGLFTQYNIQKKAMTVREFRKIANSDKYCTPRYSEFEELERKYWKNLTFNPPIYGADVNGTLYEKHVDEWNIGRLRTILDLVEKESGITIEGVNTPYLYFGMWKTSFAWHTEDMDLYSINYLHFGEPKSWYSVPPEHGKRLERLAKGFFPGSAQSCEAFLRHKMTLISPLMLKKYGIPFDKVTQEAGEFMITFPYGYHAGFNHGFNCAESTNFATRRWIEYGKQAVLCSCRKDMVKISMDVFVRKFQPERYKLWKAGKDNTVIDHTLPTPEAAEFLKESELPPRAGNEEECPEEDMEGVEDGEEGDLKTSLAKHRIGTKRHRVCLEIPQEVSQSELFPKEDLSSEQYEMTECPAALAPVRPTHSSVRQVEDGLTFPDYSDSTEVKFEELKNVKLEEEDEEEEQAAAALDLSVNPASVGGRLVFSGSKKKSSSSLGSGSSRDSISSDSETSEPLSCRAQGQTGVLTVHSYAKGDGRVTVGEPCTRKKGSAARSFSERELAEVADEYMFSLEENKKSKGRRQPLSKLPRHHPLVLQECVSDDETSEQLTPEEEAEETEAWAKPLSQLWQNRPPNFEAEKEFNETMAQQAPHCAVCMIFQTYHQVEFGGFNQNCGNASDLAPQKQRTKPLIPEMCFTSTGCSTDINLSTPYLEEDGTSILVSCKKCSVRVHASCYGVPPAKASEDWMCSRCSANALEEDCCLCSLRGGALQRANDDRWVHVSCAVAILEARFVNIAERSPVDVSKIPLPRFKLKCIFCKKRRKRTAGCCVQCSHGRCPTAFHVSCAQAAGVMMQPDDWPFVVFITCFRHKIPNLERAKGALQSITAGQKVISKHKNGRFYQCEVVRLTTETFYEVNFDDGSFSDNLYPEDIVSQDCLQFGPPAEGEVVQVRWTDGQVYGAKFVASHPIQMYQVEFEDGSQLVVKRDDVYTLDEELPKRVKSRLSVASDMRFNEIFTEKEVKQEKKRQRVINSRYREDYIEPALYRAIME

[18] = target: Lysine-specific demethylase 4C (Homo sapiens, UniProt Q9H3R0); assay: inhibition of JMJD2C H3K9me3 demethylation – biochemical, DELFIA europium, cherry-picked samples, dose response (AID 488835); format: functional
Sequence of Lysine-specific demethylase 4C (Q9H3R0 whole entry): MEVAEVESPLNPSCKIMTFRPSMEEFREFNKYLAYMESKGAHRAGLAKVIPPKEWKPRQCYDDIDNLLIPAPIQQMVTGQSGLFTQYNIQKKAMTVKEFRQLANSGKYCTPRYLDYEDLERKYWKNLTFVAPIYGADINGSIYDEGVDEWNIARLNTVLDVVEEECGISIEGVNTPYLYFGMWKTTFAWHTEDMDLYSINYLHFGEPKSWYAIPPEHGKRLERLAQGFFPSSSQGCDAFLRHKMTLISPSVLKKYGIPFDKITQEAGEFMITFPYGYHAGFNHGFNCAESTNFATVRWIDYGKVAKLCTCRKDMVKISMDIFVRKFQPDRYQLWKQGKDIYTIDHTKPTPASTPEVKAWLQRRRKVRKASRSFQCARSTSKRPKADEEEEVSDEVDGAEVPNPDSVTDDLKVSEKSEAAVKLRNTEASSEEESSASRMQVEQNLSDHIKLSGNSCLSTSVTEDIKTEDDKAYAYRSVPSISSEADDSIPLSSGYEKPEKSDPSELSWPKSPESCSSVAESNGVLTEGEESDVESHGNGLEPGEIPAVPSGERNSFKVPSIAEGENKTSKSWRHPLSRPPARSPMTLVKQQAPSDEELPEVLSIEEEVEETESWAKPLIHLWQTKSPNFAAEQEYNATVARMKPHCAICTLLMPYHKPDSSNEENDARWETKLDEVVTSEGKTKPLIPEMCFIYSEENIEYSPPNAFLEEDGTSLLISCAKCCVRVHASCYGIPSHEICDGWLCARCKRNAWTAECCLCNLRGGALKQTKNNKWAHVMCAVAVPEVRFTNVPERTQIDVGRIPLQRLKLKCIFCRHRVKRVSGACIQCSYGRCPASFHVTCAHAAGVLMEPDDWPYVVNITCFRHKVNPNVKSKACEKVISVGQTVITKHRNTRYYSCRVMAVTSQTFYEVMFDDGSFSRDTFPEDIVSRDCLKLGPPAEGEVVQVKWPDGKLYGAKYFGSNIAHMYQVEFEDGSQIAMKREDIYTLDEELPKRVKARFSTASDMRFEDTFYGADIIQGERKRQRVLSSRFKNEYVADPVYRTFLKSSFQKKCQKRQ

[19] = target: T5, Replicative DNA helicase DnaB (Mycobacterium tuberculosis, UniProt P9WMR3); assay: DnaB intein splicing inhibitors, dose response, biochemical, cell-free fluorescence (AID 449749); format: functional
T5 sequence (P9WMR3 whole entry): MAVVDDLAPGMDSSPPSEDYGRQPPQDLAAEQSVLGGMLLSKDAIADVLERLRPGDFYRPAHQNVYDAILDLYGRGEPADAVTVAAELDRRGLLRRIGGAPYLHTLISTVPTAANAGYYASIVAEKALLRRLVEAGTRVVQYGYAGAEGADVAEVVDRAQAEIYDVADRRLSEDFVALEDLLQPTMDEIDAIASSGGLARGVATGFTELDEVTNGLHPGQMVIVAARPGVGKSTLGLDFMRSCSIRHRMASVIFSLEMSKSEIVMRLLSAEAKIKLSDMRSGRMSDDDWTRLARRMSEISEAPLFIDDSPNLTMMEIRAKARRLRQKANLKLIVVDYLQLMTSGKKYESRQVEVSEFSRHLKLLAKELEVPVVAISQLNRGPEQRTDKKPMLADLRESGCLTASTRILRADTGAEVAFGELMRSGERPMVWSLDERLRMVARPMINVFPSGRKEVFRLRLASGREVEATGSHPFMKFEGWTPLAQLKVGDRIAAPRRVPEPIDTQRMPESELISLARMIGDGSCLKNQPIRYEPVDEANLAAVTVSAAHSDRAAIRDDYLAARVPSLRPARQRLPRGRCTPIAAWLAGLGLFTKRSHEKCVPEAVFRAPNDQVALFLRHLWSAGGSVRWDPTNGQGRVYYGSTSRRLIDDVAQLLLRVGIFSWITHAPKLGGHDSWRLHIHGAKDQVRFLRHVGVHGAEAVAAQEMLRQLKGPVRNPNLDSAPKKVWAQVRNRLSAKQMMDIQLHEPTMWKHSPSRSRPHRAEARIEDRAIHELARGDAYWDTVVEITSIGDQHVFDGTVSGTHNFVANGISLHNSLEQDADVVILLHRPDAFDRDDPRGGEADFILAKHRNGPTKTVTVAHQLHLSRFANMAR

[20] = test system: INS1; assay: INS-1E survival protection against cytokine death – cell-based, luminescence, retest, dose response (AID 449756); format: functional; conditions: Rattus norvegicus;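 further: cell death triggered by IL-1 beta plus TNF-alpha plus IFN-gamma mixture; protective hits raise ATP signal compared with cytokine alone wells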
[21] = target: Ras and Rab interactor 1/Tyrosine-protein kinase ABL1 (Homo sapiens, UniProt P00519+Q13671); format: functional;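 further: biochemical TR-FRET dose-response test measuring inhibition of binding between Rin1 and Abl proteins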
[22] = cytotoxicity toward MDA-MB-231 breast cancer cells – cell-based, CellTiter-Glo luminescence, cherry-pick, cytotoxicity control for RAD54 inhibitor project, dose response (AID 651692); format: functional
[23] = target: DNA repair and recombination protein RAD54-like (Homo sapiens, UniProt Q92698); assay: RAD54 Holliday junction migration blockers – biochemical, fluorescence, cherry-picked samples, dose series, confirmation (AID 651657); format: functional
Sequence of DNA repair and recombination protein RAD54-like (Q92698 whole entry): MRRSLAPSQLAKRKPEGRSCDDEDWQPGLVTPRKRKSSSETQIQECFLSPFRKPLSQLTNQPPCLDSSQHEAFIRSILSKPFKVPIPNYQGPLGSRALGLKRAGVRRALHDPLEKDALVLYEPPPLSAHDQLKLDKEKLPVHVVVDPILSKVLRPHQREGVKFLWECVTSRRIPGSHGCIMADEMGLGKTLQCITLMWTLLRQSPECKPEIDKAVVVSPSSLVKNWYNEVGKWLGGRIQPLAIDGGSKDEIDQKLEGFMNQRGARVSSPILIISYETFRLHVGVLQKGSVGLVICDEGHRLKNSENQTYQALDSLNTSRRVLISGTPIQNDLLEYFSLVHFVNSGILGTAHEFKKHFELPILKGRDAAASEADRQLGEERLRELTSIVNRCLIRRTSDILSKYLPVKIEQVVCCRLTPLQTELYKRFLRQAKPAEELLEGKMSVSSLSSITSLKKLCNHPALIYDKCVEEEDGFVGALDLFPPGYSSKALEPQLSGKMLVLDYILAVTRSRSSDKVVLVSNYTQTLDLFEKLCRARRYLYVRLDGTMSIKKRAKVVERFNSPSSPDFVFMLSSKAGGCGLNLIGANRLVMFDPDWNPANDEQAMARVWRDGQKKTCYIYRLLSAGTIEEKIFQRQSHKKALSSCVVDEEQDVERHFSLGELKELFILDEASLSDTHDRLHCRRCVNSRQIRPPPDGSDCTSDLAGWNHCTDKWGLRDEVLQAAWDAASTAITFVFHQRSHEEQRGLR

[24] = reduced cellular PGC1a acetyl-lysine signal – cell-based, cherry-picked samples, dose response (AID 720514); format: functional;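 further: potency may reflect raised or lowered acetylation signal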

O=c1c2c(OCC(F)(F)F)cc([N+](=O)[O-])cc2sn1-c1ccc(F)cc1
active: IC50 [1] 26100 nM | IC50 [3] 577 nM
inactive: IC50 [2] > 100000 nM

Cn1ncnc2c(=O)n(C)c(=O)nc1-2
inactive: IC50 [4] < 980 nM
active: IC50 [6] < 1240 nM | EC50 [7] 470 nM | EC50 [8] 492 nM | CC50 [9] 7980 nM | EC50 [10] 640 nM | IC50 [11] 1360 nM | EC50 [12] 850 nM | IC50 [14] 2320 nM | IC50 [15] 2000 nM | CC50 [16] 10300 nM | AC50 [17] 2540 nM | AC50 [18] 541 nM | AC50 [19] 57 nM | AC50 [20] 627 nM | IC50 [21] 323 nM | AC50 [22] 1800 nM | AC50 [23] 1100 nM | AC50 [24] 463 nM
> 39800 nM (not active): IC50 [5] | IC50 [13]
